Source: patent publication US20230002346A1, “NEW COMPOUNDS AND METHODS” (BenevolentAl Bio Limited, priority 2019, published 2023)
Converted amounts (≈) assume the structure as drawn.

How the values were obtained:
[1] = Brain to plasma (B:P) ratio in rat; assay type: in vivo, Sprague Dawley Rats; settings: male, Sprague Dawley, po, p.o. 3.0 mg/kg, 30% HPBC in water; for Kp: timepoints averaged 0.5-4 h
Method: Male Sprague Dawley Rats 300-350 g (Charles River, UK) were group housed, n=3, under a 12 h light/dark cycle with food and water available ad libitum. At 17:00 on the day prior to dosing all food was removed. On the day of dosing animals were weighed, tail marked and dosed via oral gavage with compound at 3 mg/kg in a volume of 5 mL/kg. Animals were culled at 30 min, 1 h and 4 h post dose via intra-peritoneal administration of pentobarbital. Post mortem blood was withdrawn via cardiac puncture, and briefly stored in K2 EDTA blood tubes on ice before being spun at 14,000 g for 4 min at 4° C. Plasma was withdrawn into a 96 well plate, placed on dry ice and stored at −80° C. Brains were quickly dissected and placed on dry ice before storage at −80° C. Bioanalysis of plasma and brain samples is performed as detailed below. Methods were prepared with guidance from industry standard documents.^i,ii […] Calibration lines are prepared in control male Sprague-Dawley Rat plasma at known concentrations in the range of 1-10000 ng/mL by spiking 2.5 μL of calibration spiking solution into 25 μL control plasma. Experimental samples are thawed to RT and 25 μL aliquots are extracted alongside the calibration lines using protein precipitation (agitation for at least 5 min at RT with 400 μL of MeCN containing 25 ng/mL tolbutamide as an internal standard). Protein precipitates are separated from the extracted test compound by centrifugation at 4000 rpm for 5 min, 4° C. […] Samples are analysed by UPLC-MS/MS on either an API6500 QTrap or Waters 30 TQS mass spectrometer using previously optimised analytical MRM (multiple reaction monitoring) methods, specific to the test compound. The concentration of test compound in isolated samples is determined following analysis of the samples against the two replicates of the calibration line, injected before and after the sample set with an appropriate regression and weighting used. Only samples within 20% of the expected test concentration are included in the calibration line and any samples that fall outside of the limits of the calibration line will be deemed to be less than or above the limit of quantification (LLoQ/ALoQ). […] Calibration lines are prepared in control male Sprague-Dawley Rat brain homogenate at known concentrations in the range of 3-30000 ng/g by spiking 2.5 μL of calibration spiking solution into 25 μL control homogenate. To prepare control and experimental brain homogenates, brains are thawed, weighed and a volume of diluent added (water) in the ratio of 2 mL per gram of brain. Homogenisation of brains is performed by bead-beater homogenisation using Precellys Evolution and CK14 7 mL small ceramic bead homogenisation tubes. Aliquots of 25 μL experimental sample are extracted alongside the calibration lines using protein precipitation (agitation for at least 5 min at RT with 400 μL of MeCN containing 25 ng/mL tolbutamide as an internal standard). Protein precipitates are separated from the extracted test compound by centrifugation at 4000 rpm for 5 min, 4° C. […] Samples are analysed by UPLC-MS/MS on either an API6500 QTrap or Waters TQS mass spectrometer using previously optimised analytical MRM (multiple reaction monitoring) methods, specific to the test compound. The concentration of test compound in isolated samples is determined following analysis of the samples against the two replicates of the calibration line, injected before and after the sample set with an appropriate regression and weighting used. Only samples within 20% of the expected test concentration are included in the calibration line and any samples that fall outside of the limits of the calibration line will be deemed to be less than or above the limit of quantification (LLoQ/ALoQ). Total brain to plasma (B:P) ratios were calculated by dividing the concentration in the brain by the concentration in plasma for each timepoint. The mean brain to plasma ratio is calculated by averaging these brain to plasma ratios across certain timepoints. […]

hERG channel = molecular target: T1, hERG channel (Homo sapiens, UniProt Q12809); test: hERG assay (QPatch automated patch clamp, CHO cells); assay type: cell-based; settings: CHO cells expressing hERG, whole-cell patch clamp, 0.003 μM to 10 μM
T1 construct: expressed in transfected cells
From the text: The human ether-a-go-go related gene (hERG) potassium channel (Kv11.1) contributes to human cardiac action potential repolarisation. Inhibition of hERG channels can prolong the human cardiac action potential, resulting in QTc prolongation and potentially lethal arrhythmias (e.g. Torsade de Pointes).
Test samples were screened against the hERG channel on a QPatch 48 gigaseal automated patch clamp platform, using a Chinese Hamster Ovary (CHO) cell line stably expressing the human ether-á-go-go related gene, which encodes the hERG channel. All recordings were made in the conventional whole-cell configuration and performed at RT ([…]) using standard single hole chips (Rchip 1.5-4M0). Series resistance (4-15Mc) was compensated by >80%. Currents were elicited from a holding potential of −90 mV using the industry standard “^+40/−40” voltage protocol, which was applied at a stimulus frequency of 0.1 Hz. On achieving the whole-cell configuration, vehicle (0.1% DMSO v/v in external recording solution) was applied to each cell in two bolus additions with a 2 min recording period between each addition. Following the vehicle period, eight increasing concentrations of test sample were applied from 0.003 μM to 10 μM as a single bolus addition per test concentration, and the effects on hERG tail current amplitude measured during the 2 min recording period. Each eight-point concentration-response curve was constructed using cumulative single sample additions of each concentration to the same cell. The positive control used in this study was verapamil hydrochloride (Tocris, Cat #0654, Batch #5A/61673) and prepared to a stock concentration of 10 mM in 100% DMSO and kept as frozen aliquots.
Data analysis: All cells passing the QC parameters (i.e. >200 pA outward current, membrane resistance and rundown) are selected as ‘passed QC’ using the QPatch software, which then calculates the mean peak current for the last three sweeps at the end of each concentration application period from the cursor positions defined. Percent inhibition is calculated for each test concentration application period as the reduction in mean cursor value (peak current or charge) relative to the cursor value measured at the end of the control (i.e. vehicle) period. The percent inhibition values from each cell are used to construct concentration-response curves employing a four parametric logistic fit with 0 and 100% inhibition levels fixed at very low and very high concentrations, respectively, and a free Hill slope factor. The IC50 (50% inhibitory concentration) and Hill coefficient are then determined, but only data from cells with Hill slopes within 0.5>nH<2.0 are included. The IC50 data reported below represents the mean (and S.D.) of at least three separate cells (N≥3). […] Compounds of the invention show reduced hERG inhibitory activity compared to the reference examples.

[2] = Kinetic aqueous solubility assay; assay type: physicochemical; settings: aqueous buffer, kinetic from dmso stock, 0.05M potassium phosphate buffer pH 7.4, 250 μM spike, RT
Method: Using a 10 mM stock solution of test compound in 100% DMSO, test compounds were spiked into 0.05M potassium phosphate buffer (pH 7.4) at a final concentration of 250 μM. Samples in buffer (n=2 aqueous samples, in 96-well plates) were allowed to equilibrate at RT on an orbital shaker for 30 min (300 rpm) to induce precipitation of test compounds. The appearance of each sample was determined by visual examination and noted (clear, cloudy, precipitate observed etc.). […] The concentration of compound in phosphate buffer filtrate was determined by comparing the UV absorbance peak area of each replicate against that of the calibration standards. […] Compounds of the invention have much improved solubility compared to the reference examples.

[3] = Rat PK profile (bioavailability, clearance, half-life); assay type: in vivo; settings: male, Sprague Dawley, plasma, i.v. dose 1 mg/kg; for clearance / half-life: iv; for half-life: read-out: T½ (converted); for bioavailability: po, p.o. dose 3 mg/kg
Method: Male Sprague Dawley Rats 300-350 g (Charles River, UK) were group housed, n=3, under a 12 h light/dark cycle with food and water available ad libitum. At 17:00 on the day prior to dosing all food was removed. On the day of dosing animals were weighed, tail marked and dosed via oral gavage with compound at 3 mg/kg in a volume of 5 mL/kg. Animals were culled at 30 min, 1 h and 4 h post dose via intra-peritoneal administration of pentobarbital. Post mortem blood was withdrawn via cardiac puncture, and briefly stored in K2 EDTA blood tubes on ice before being spun at 14,000 g for 4 min at 4° C. Plasma was withdrawn into a 96 well plate, placed on dry ice and stored at −80° C. Brains were quickly dissected and placed on dry ice before storage at −80° C. Bioanalysis of plasma and brain samples is performed as detailed below. Methods were prepared with guidance from industry standard documents.^i,ii
A 10 mM DMSO stock is used to prepare spiking solutions of test compound in the range of 10-100,000 ng/mL in diluent (MeCN:water, 1;1). Calibration lines are prepared in control male Sprague-Dawley Rat plasma at known concentrations in the range of 1-10000 ng/mL by spiking 2.5 μL of calibration spiking solution into 25 μL control plasma. Experimental samples are thawed to RT and 25 μL aliquots are extracted alongside the calibration lines using protein precipitation (agitation for at least 5 min at RT with 400 μL of MeCN containing 25 ng/mL tolbutamide as an internal standard). Protein precipitates are separated from the extracted test compound by centrifugation at 4000 rpm for 5 min, 4° C. The resulting supernatants are diluted in a ratio of 1:2 with a relevant diluent (e.g. 0.1% formic acid in water or 1:1 MeOH:water). Samples are analysed by UPLC-MS/MS on either an API6500 QTrap or Waters 30 TQS mass spectrometer using previously optimised analytical MRM (multiple reaction monitoring) methods, specific to the test compound. The concentration of test compound in isolated samples is determined following analysis of the samples against the two replicates of the calibration line, injected before and after the sample set with an appropriate regression and weighting used. Only samples within 20% of the expected test concentration are included in the calibration line and any samples that fall outside of the limits of the calibration line will be deemed to be less than or above the limit of quantification (LLoQ/ALoQ).
Pharmacokinetic parameters such as bioavailability (% F), clearance (CL), half-life (T½) and volume of distribution are calculated by non-compartmental analysis using Phoenix Winnonlin 64 software (build 8.0). The bioavailability was calculated from p.o. dosed rats, whereas the clearance and half-life were calculated from i.v. dosed rats. Briefly, in vivo plasma concentrations, timepoints and dose values are imported into the software in a compatible format. Plasma concentration for each animal is plotted against time, and the elimination phase identified and selected. The area under the curve for each plot is calculated using a linear trapezoidal linear interpolation from which pharmacokinetic parameters can subsequently be determined. […] Compounds of the invention have much improved clearance (CL) and half-life (T½) compared to the reference examples.

T1 sequence (Q12809 whole entry): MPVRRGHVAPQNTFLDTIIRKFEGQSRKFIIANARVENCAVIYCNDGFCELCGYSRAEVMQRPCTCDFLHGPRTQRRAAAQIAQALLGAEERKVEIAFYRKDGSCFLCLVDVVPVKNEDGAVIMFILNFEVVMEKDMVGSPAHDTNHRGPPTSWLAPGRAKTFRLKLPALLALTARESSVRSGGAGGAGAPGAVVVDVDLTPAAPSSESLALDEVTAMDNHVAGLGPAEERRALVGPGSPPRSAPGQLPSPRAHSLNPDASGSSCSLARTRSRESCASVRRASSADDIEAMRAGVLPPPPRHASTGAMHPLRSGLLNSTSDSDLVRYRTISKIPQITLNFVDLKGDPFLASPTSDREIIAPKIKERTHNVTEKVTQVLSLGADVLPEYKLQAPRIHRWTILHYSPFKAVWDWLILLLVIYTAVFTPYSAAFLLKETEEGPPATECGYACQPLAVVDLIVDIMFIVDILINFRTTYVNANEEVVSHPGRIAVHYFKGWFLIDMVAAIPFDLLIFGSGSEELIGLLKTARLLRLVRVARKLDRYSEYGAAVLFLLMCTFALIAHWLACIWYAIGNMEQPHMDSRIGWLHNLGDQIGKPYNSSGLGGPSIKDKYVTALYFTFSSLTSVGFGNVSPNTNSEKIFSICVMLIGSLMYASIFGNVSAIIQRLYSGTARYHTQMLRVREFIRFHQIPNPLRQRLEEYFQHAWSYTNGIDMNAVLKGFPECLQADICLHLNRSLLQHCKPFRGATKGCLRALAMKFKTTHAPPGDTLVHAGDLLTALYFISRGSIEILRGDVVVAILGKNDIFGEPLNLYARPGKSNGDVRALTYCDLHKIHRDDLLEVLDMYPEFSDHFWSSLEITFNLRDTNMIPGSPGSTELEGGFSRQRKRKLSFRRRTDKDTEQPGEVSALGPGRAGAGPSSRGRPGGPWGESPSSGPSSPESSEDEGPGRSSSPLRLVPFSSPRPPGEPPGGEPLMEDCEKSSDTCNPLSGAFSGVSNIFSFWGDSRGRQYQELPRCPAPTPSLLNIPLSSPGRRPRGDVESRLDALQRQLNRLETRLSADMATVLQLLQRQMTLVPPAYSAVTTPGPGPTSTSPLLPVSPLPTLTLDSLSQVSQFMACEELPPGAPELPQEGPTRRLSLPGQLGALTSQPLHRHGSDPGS

| SMILES | Kp [1] | solubility at 30 min [2] [µM] | clearance [3] [mL/min/kg] | half-life [3] [h] | bioavailability [3] [%] | IC50 (hERG channel) [µM] | further results |
| --- | --- | --- | --- | --- | --- | --- | --- |
| COc1ccc(-n2cc(C(=O)Nc3ccc(OC(F)(F)Cl)cc3)ccc2=O)cn1 [Example 13, N-[4-[Chloro(difluoro)methoxy]phenyl]-1-(6-methoxy-3-pyridyl)-6-oxo-pyridine-3-carboxamide] | 0.79 | – | – | – | – | – | – |
| O=C(Nc1ccc(OC(F)(F)Cl)cc1)c1ccc(=O)n(-c2ccc(F)c(F)c2)c1 [Example 24, N-[4-(Chlorodifluoromethoxy)phenyl]-1-(3,4-difluorophenyl)-6-oxo-1,6-dihydropyridine-3-carboxamide] | 0.68 | – | – | – | – | > 10 | – |
| COc1cccc(-n2cc(C(=O)Nc3ccc(OC(F)(F)Cl)cc3)ccc2=O)c1 [Example 35, N-[4-(Chlorodifluoromethoxy)phenyl]-1-(3-methoxyphenyl)-6-oxo-1,6-dihydropyridine-3-carboxamide] | – | – | – | – | – | > 10 | Kp at 1 h ([1]; timepoint 1 h): 1.11 |
| O=C(Nc1ccc(OC(F)(F)Cl)cc1)c1cnc(N2CC[C@@H](O)C2)c(-c2ccn[nH]2)c1 [Ref. ex. 1, N-[4-[Chloro(difluoro)methoxy]phenyl]-6-[(3R)-3-hydroxypyrrolidin-1-yl]-5-(1H-pyrazol-5-yl)pyridine-3-carboxamide, reference compound] | – | – | 22 | 2.1 | 4 | – | – |

Further lines, with some results ahead:

| Kp [1] | solubility at 30 min [2] [µM] | clearance [3] [mL/min/kg] | half-life [3] [h] | bioavailability [3] [%] | SMILES | IC50 (hERG channel) [µM] | further results |
| --- | --- | --- | --- | --- | --- | --- | --- |
| 0.98 | 120 (≈ 49.1 µg/mL) | – | – | – | O=C(Nc1ccc(OC(F)(F)Cl)cc1)c1ccc(=O)n(-c2ccc(F)cc2)c1 [Example 42, N-[4-(Chlorodifluoromethoxy)phenyl]-1-(4-fluorophenyl)-6-oxo-1,6-dihydropyridine-3-carboxamide] | – | – |
| 1.54 | – | – | – | – | O=C(Nc1ccc(OC(F)(F)Cl)cc1)c1ccc(=O)n(-c2cccc(F)c2)c1 [Example 47, N-[4-(Chlorodifluoromethoxy)phenyl]-1-(3-fluorophenyl)-6-oxo-1,6-dihydropyridine-3-carboxamide] | > 10 | – |
| 0.31 | 170 (≈ 69 µg/mL) | – | – | – | Cc1ccc(-n2cc(C(=O)Nc3ccc(OC(F)(F)Cl)cc3)ccc2=O)cn1 [Example 65, N-[4-(Chlorodifluoromethoxy)phenyl]-6′-methyl-2-oxo-2H-[1,3′-bipyridine]-5-carboxamide] | – | – |
| – | – | 3 | 6.2 | 102 | Cn1cc(C(=O)Nc2ccc(OC(F)(F)Cl)cc2)cc(-c2cccnc2)c1=O [Example 81, N-[4-[Chloro(difluoro)methoxy]phenyl]-1-methyl-6-oxo-5-(3-pyridyl)pyridine-3-carboxamide] | – | – |
| 0.69 | – | – | – | – | Cn1cc(C(=O)Nc2ccc(OC(F)(F)Cl)cc2)cc(-c2ccccc2)c1=O [Example 88, N-[4-[Chloro(difluoro)methoxy]phenyl]-1-methyl-6-oxo-5-phenyl-pyridine-3-carboxamide] | – | – |
| – | < 5 | 12 | 1.2 | 113 | O=C(Nc1ccc(OC(F)(F)F)cc1)c1cncc(-c2cccnc2)c1 [Ref. ex. 4, 5-(3-Pyridyl)-N-[4-(trifluoromethoxy)phenyl]pyridine-3-carboxamide, reference compound] | 4.7 | – |
